Assay results published in US4683239A, “3-diphenyl substituted octahydroindolizine analgesic compounds” (McNeilab, Inc., priority 1986, dated 1987).
Structures can show the parent of a compound that is named as a salt.

system: mice; experiment: Mouse Acetylcholine-Bromide-Induced Abdominal Constriction Assay; type: in vivo; conditions: Mus musculus, po, 0.5 h, oral (p.o.), 30 min before i.p. 5.5 mg/kg acetylcholine bromide, dose which inhibits writhing by 50%
Procedure: […]., 32: 295-310, 1968, with minor modifications was used to assess analgesic potency of the compounds of formula (I). The test drugs or appropriate vehicle were administered orally (p.o.) and 30 minutes later the animals received an intraperitoneal (i.p.) injection of 5.5 mg/kg acetylcholine bromide (Matheson, Coleman and Bell, East Rutherford, NJ). The mice were then placed in groups of four into glass bell jars and observed for a ten minute observation period for the occurrence of a writhe (defined as a wave of constriction and elongation passing caudally along the abdominal wall, accompanied by a twisting of the trunk and followed by extension of the hind limbs). The percent inhibition of writhing (equated to % analgesia) was calculated as follows: The % Inhibition of writhing, i.e., % analgesia is equal to the difference between the No. of control animals writhing and the No. of drug-treated animals writhing times 100 divided by the No. of control animals writhing. At least 20 animals were used for control and in each of the drug treated groups. Four doses were used to determine each dose response curve and ED50 (that dose which inhibits writhing by 50%). The ED50 values and their 95% fiducial limits were determined by a computer assisted probit analysis.

Point of comparison: `Cl.c1ccc(COc2ccc([C@@H]3CC[C@@H]4CCCCN43)cc2)cc1` (relative stereo) [Example 3b, trans-Octahydro-3-[4-(phenylmethoxy)phenyl]indolizine Hydrochloride], ED50 16.8 mg/kg. Against it:
- Cl.c1ccc(CCc2ccc([C@@H]3CC[C@@H]4CCCCN43)cc2)cc1 (relative stereo) [Example 6, trans-Octahydro-3-[4-(2-phenylethyl)phenyl]indolizine Hydrochloride] — 2.4-fold lower, 6.9 mg/kg
- Cc1ccc(Sc2ccc(C3CCC4CCCCN43)cc2)cc1.Cl (stereo not drawn) [Example 7, 3-[4-[(4-Methylphenyl)thio]phenyl]octahydroindolizine Hydrochloride] — higher, 20 to 30 mg/kg
- CC(=O)Nc1cccc(C#Cc2ccc([C@@H]3CC[C@@H]4CCCCN43)cc2)c1 (relative stereo) [Example 2, N-[3-[[4-(trans-Octahydro-3-indolizinyl)phenyl]ethynyl]phenyl]acetamide] — within 1.5-fold, 17.6 mg/kg
- CC(=O)Nc1cccc(/C=C\c2ccc([C@H]3CC[C@H]4CCCCN43)cc2)c1 (relative stereo) [Example 4] — 2.4-fold lower, 6.9 mg/kg
- CC(=O)Nc1ccc(Oc2ccc([C@H]3CC[C@H]4CCCCN43)cc2)cc1 (relative stereo) [Example 12f, N-[4-[4-trans-Octahydro-3-indolizinyl)phenoxy]phenylacetamide] — lower, ≤ 5 mg/kg

same assay, conditions: oral (p.o.), @ 30 mg/kg, 30 min before i.p. 5.5 mg/kg acetylcholine bromide, printed in ED50 column

Point of comparison: `CC(=O)Nc1cccc(CCc2ccc([C@@H]3CC[C@@H]4CCCCN43)cc2)c1` (relative stereo) [Example 9, N-[3-[2-[4-(trans-Octahydro-3-indolizinyl)phenyl]ethyl]phenyl]acetamide], “% Inhibition of writhing (% analgesia)” value 86%. Against it:
- CC(=O)Nc1cccc(Sc2ccc([C@H]3CC[C@H]4CCCCN43)cc2)c1 (relative stereo) [Example 11, N-[3-[[4-trans-Octahydro-3-indolizinyl)phenyl]thio]phenyl]acetamide Hydrochloride Hydrate] — lower, 73%
- CC(=O)Nc1ccc(Sc2ccc([C@@H]3CC[C@@H]4CCCCN43)cc2)c(Cl)c1.Cl (relative stereo) [Example 13e] — lower, 46%
